Assay [1] addresses T1, TBK1 (Homo sapiens, UniProt Q9UHD2).
T1 sequence (Q9UHD2 1-729): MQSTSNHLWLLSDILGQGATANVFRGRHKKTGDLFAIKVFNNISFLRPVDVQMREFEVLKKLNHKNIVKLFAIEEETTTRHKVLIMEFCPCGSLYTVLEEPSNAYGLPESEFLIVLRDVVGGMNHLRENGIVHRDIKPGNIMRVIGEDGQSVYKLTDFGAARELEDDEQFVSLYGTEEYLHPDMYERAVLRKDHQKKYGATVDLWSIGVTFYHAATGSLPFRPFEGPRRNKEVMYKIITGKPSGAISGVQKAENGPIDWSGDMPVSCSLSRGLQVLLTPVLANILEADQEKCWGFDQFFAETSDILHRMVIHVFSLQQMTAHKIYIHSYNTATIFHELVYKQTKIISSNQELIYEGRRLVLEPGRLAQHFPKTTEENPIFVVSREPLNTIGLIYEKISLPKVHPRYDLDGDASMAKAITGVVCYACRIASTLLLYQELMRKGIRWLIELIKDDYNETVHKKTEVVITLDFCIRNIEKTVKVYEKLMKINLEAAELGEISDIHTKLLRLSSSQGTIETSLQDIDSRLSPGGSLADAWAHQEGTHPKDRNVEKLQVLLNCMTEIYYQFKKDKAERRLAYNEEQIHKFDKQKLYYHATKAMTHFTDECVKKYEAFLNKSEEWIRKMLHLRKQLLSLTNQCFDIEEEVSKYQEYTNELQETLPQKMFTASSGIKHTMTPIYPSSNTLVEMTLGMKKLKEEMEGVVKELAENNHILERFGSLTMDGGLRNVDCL
Description: TBK Biochemical Assay. The settings on record: read-out: TBK1 IC50. The gist of the method:
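Caliper LabChip mobility-shift readout of substrate and product after 90 min of TBK1 reaction at 25° C and stop-buffer addition. Compounds tested in 1:4 serial dilution over 10 points from 30 uM final at 1% DMSO; staurosporine 10 uM final defines full inhibition.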

Assay [2] deals with T2, IKKε (Homo sapiens, UniProt Q14164).
T2 sequence (Q14164 1-716): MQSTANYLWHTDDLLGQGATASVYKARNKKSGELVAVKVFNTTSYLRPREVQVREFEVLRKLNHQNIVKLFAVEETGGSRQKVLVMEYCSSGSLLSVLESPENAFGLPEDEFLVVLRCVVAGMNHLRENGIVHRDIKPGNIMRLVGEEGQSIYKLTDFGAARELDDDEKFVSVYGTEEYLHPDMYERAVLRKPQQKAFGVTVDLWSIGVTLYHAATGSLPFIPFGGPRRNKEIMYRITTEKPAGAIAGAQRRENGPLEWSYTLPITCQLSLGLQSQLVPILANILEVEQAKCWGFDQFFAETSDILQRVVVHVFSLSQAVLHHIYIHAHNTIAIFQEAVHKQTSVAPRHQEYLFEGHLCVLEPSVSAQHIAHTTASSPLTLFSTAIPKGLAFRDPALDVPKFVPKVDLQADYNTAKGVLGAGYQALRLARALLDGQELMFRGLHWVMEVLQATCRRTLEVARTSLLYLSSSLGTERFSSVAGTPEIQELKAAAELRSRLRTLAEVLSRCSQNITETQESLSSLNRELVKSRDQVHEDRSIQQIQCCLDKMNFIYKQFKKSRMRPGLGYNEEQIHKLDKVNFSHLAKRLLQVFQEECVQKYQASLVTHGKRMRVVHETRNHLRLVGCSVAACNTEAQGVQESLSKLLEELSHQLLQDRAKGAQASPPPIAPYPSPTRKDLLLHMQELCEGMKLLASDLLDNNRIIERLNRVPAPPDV
Description: IKKe Biochemical Assay. The settings on record: read-out: IKKε IC50. In a few lines:
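Activity was measured as mobility-shift separation of phosphorylated from unphosphorylated substrate on a LabChip EZ Reader. Compound was titrated from 30 uM final in 10 points, 1:4 steps, with 1% DMSO, and enzyme plus substrate reacted 90 min at 25° C before stop buffer. Control wells held 10 uM staurosporine.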

Assay [3] has as its system phosphorylation of the IRF-3 protein in MDA-MB-468 cells. Kind of assay: pIRF3 immunocytochemistry cell based assay. To be noted: Homo sapiens; MDA-MB-468 cells, Poly(I:C) stimulation; read-out: pIRF3 IC50. In a few lines: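 After 2 h stimulation with Poly(I:C) (10 ug/ml), following 1 h compound pre-treatment (10-point, 3-fold dilution, top 10 uM), MDA-MB-468 cells were fixed and stained with anti-pIRF3 antibody. pIRF3 fluorescence was normalized to PI staining or cell count on an Acumen cytometer. IC50 curves were derived from this.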

From patent US10428080B2, “TBK/IKK inhibitor compounds and uses thereof” (Merck Patent GmbH, priority 2015, dated 2019) come the findings set out here.

The structures appear in SMILES notation. Where a name gives a salt, the structure may show the parent alone. A value given as a limit tells only on which side of the number the result lay.

On to `COc1cc(C(=O)N(C)C)ncc1-c1cc2nccc(-c3ccc(OC4CCNCC4(F)F)c(C#N)c3)c2o1` (stereo not drawn) [Compound 418, 5-(7-[3-cyano-4-[(3,3-difluoropiperidin-4-yl)oxy]phenyl]furo[3,2-b]pyridin-2-yl)-4-methoxy-N,N-dimethylpyridine-2-carboxamide hydrochloride], for which the results for the 50% inhibitory concentration (IC50) in assay [1], in assay [2] and in assay [3] were less than 100 nM, less than 100 nM and 100 to 1000 nM, respectively.
For the compound `COc1cc(C(=O)N(C)C)ncc1-c1cc2nccc(-c3ccc(OC4CCN(C)CC4(F)F)c(C#N)c3)c2o1` (stereo not drawn) [Compound 419, 5-(7-[3-cyano-4-[(3,3-difluoro-1-methylpiperidin-4-yl)oxy]phenyl]furo[3,2-b]pyridin-2-yl)-4-methoxy-N,N-dimethylpyridine-2-carboxamide], the IC50 (in general, the concentration needed to halve the response being measured) in assay [1] is less than 100 nM; in assay [2], less than 100 nM; in assay [3], 100 to 1000 nM.
On to `COc1cc(C(=O)N2CC3COCC3C2)cnc1-c1cc2nccc(-c3ccc(NC4CCOCC4)c(C#N)c3)c2o1` (stereo not drawn) [Compound 420, 5-[2-[5-([hexahydro-1H-furo[3,4-c]pyrrol-5-yl]carbonyl)-3-methoxypyridin-2-yl]furo[3,2-b]pyridin-7-yl]-2-[(oxan-4-yl)amino]benzonitrile], for which the IC50 is less than 100 nM in assay [1], less than 100 nM in assay [2] and 100 to 1000 nM in assay [3].
With `COc1cc(C(=O)NC(C)(C)CCN(C)C)cnc1-c1cc2nccc(-c3ccc(NC4CCOCC4)c(C#N)c3)c2o1` [Compound 422, 6-(7-[3-cyano-4-[(oxan-4-yl)amino]phenyl]furo[3,2-b]pyridin-2-yl)-N-[4-(dimethylamino)-2-methylbutan-2-yl]-5-methoxypyridine-3-carboxamide], the IC50 in assay [1], in assay [2] and in assay [3] was less than 100 nM in each case.
In the case of `COc1cc(C(=O)NC(C)(C)CCN(C)C)ncc1-c1cc2nccc(-c3ccc(NC4CCOCC4)c(C#N)c3)c2o1` [Compound 423, 5-(7-[3-cyano-4-[(oxan-4-yl)amino]phenyl]furo[3,2-b]pyridin-2-yl)-N-[4-(dimethylamino)-2-methylbutan-2-yl]-4-methoxypyridine-2-carboxamide], the IC50 in assay [1] is less than 100 nM; in assay [2] it was less than 100 nM; in assay [3] it was 100 to 1000 nM.
In the case of `COc1cc(C(=O)N(C)C)ncc1-c1cc2nccc(-c3ccc(OC4CN(C)C4)c(C#N)c3)c2o1` [Compound 424, 5-(7-[3-cyano-4-[(1-methylazetidin-3-yl)oxy]phenyl]furo[3,2-b]pyridin-2-yl)-4-methoxy-N,N-dimethylpyridine-2-carboxamide], the IC50 in assay [1], in assay [2] and in assay [3] was 100 to 1000 nM each time.
On to `COc1cc(C(=O)N(C)C)cnc1-c1cc2nccc(-c3ccc(OC4CN(C)C4)c(C#N)c3)c2o1` [Compound 425, 6-(7-[3-cyano-4-[(1-methylazetidin-3-yl)oxy]phenyl]furo[3,2-b]pyridin-2-yl)-5-methoxy-N,N-dimethylpyridine-3-carboxamide], for which the IC50 in assay [1], in assay [2] and in assay [3] was 100 to 1000 nM throughout.
For the compound `COc1cc(C(=O)N(C)C)cnc1-c1cc2nccc(-c3ccc(OC4CCN(C)C4)c(C#N)c3)c2o1` (stereo not drawn) [Compound 426, 6-(7-[3-cyano-4-[(1-methylpyrrolidin-3-yl)oxy]phenyl]furo[3,2-b]pyridin-2-yl)-5-methoxy-N,N-dimethylpyridine-3-carboxamide], the IC50 in assay [1], in assay [2] and in assay [3] was 100 to 1000 nM throughout.
On to `COc1cc(C(=O)N(C)C)cnc1-c1cc2nccc(-c3ccc(OC4CCN(C(C)C)C4)c(C#N)c3)c2o1` (stereo not drawn) [Compound 427, 6-(7-(3-cyano-4-(1-isopropylpyrrolidin-3-yloxy)phenyl)furo[3,2-b]pyridin-2-yl)-5-methoxy-N,N-dimethylnicotinamide], for which the IC50 in assay [1], in assay [2] and in assay [3] was 100 to 1000 nM throughout.
`COc1cc(C(=O)N(C)C)ncc1-c1cc2nccc(-c3ccc(OC4CCN(C(C)C)C4)c(C#N)c3)c2o1` (stereo not drawn) [Compound 428, 5-[7-(3-cyano-4-[[1-(propan-2-yl)pyrrolidin-3-yl]oxy]phenyl)furo[3,2-b]pyridin-2-yl]-4-methoxy-N,N-dimethylpyridine-2-carboxamide]: the values for the IC50 in assay [1], in assay [2] and in assay [3] were 1000 to 5000 nM, 1000 to 5000 nM and 100 to 1000 nM, respectively.
For the compound `COc1cc(C(=O)N(C)C)ncc1-c1cc2nccc(-c3ccc(OC4CCNC4)c(C#N)c3)c2o1` (stereo not drawn) [Compound 429, 5-[7-[3-cyano-4-(pyrrolidin-3-yloxy)phenyl]furo[3,2-b]pyridin-2-yl]-4-methoxy-N,N-dimethylpyridine-2-carboxamide], the IC50 in assay [1] was less than 100 nM; in assay [2], less than 100 nM; in assay [3], 100 to 1000 nM.
With `COc1cc(C(=O)N(C)C)ncc1-c1cc2nccc(-c3ccc(OC4CCN(C)C4)c(C#N)c3)c2o1` (stereo not drawn) [Compound 430, 5-(7-[3-cyano-4-[(1-methylpyrrolidin-3-yl)oxy]phenyl]furo[3,2-b]pyridin-2-yl)-4-methoxy-N,N-dimethylpyridine-2-carboxamide], the IC50 in assay [1], in assay [2] and in assay [3] was 100 to 1000 nM in each case.
For `COc1cc(C(=O)N(C)C)ncc1-c1cc2nccc(-c3ccc(NC4CCNC4)c(C#N)c3)c2o1` (stereo not drawn) [Compound 431, 5-(7-[3-cyano-4-[(pyrrolidin-3-yl)amino]phenyl]furo[3,2-b]pyridin-2-yl)-4-methoxy-N,N-dimethylpyridine-2-carboxamide], the IC50 in assay [1], in assay [2] and in assay [3] was less than 100 nM each time.
On to `COc1cc(C(=O)N(C)C)cnc1-c1cc2nccc(-c3ccc(NC4CCNC4)c(C#N)c3)c2o1` (stereo not drawn) [Compound 432, 6-(7-[3-cyano-4-[(pyrrolidin-3-yl)amino]phenyl]furo[3,2-b]pyridin-2-yl)-5-methoxy-N,N-dimethylpyridine-3-carboxamide], for which the IC50 in assay [1], in assay [2] and in assay [3] was less than 100 nM each time.
Turning to `COc1cc(C(=O)N(C)C)cnc1-c1cc2nccc(-c3ccc(NC4CCN(C)C4)c(C#N)c3)c2o1` (stereo not drawn) [Compound 433, 6-(7-[3-cyano-4-[(1-methylpyrrolidin-3-yl)amino]phenyl]furo[3,2-b]pyridin-2-yl)-5-methoxy-N,N-dimethylpyridine-3-carboxamide], the IC50 in assay [1], in assay [2] and in assay [3] was less than 100 nM each time.
As for `COc1cc(C(=O)N(C)C)ncc1-c1cc2nccc(-c3ccc(NC4CCN(C)C4)c(C#N)c3)c2o1` (stereo not drawn) [Compound 434, 5-(7-[3-cyano-4-[(1-methylpyrrolidin-3-yl)amino]phenyl]furo[3,2-b]pyridin-2-yl)-4-methoxy-N,N-dimethylpyridine-2-carboxamide], the IC50 in assay [1], in assay [2] and in assay [3] was less than 100 nM throughout.
